Experimental data from patent US7569700B2, “Substituted, bicyclic 8-pyrrolidinobenzimidazoles, methods for their production and their use as medicaments” (sanofi - aventis, priority 2005, dated 2009).

Biological target: T1, DPP-IV from porcine kidneys (Sus scrofa, UniProt P22411)
T1 construct: DPP-IV from porcine kidneys (Sigma, Munich); purchased Sigma, Munich; host or cells: porcine kidney (tissue-derived enzyme)
Assay: Measurement of the DPP-IV activity (fluorimetric conversion of H-Ala-Pro-AFC)
Assay type: biochemical
Conditions: at 30 μm compound; DPP-IV 1 mU/ml, H-Ala-Pro-AFC 15 μm, Tris/HCl pH 7.4, room temperature
Description: Measurement of the DPP-IV Activity:
DPP-IV from porcine kidneys (Sigma, Munich)
H-Ala-Pro-AFC (Bachem, Weil am Rhein)
DPP-IV (1 mU/ml, end concentration)
H-Ala-Pro-AFC (15 μm end concentration) in Tris/HCl (40 mM, pH 7.4), total volume 0.2 ml
The reaction was performed at room temperature for different periods (typically 10 minutes) and stopped at the end of the reaction by adding 20 μl of ZnCl2 (1 M). The conversion of H-Ala-Pro-AFC was determined fluorimetrically by measuring the emission at 535 nm on excitation at 405 nm. In the case of addition of inhibitors, the buffer volume added was adjusted such that a total volume of the test mixture of 200 μl was maintained.
% inhibition at a fixed concentration was calculated as follows: (1-enzyme activityinhibited reaction/enzyme activityuninhibited reaction)×100

T1 sequence (P22411 whole entry): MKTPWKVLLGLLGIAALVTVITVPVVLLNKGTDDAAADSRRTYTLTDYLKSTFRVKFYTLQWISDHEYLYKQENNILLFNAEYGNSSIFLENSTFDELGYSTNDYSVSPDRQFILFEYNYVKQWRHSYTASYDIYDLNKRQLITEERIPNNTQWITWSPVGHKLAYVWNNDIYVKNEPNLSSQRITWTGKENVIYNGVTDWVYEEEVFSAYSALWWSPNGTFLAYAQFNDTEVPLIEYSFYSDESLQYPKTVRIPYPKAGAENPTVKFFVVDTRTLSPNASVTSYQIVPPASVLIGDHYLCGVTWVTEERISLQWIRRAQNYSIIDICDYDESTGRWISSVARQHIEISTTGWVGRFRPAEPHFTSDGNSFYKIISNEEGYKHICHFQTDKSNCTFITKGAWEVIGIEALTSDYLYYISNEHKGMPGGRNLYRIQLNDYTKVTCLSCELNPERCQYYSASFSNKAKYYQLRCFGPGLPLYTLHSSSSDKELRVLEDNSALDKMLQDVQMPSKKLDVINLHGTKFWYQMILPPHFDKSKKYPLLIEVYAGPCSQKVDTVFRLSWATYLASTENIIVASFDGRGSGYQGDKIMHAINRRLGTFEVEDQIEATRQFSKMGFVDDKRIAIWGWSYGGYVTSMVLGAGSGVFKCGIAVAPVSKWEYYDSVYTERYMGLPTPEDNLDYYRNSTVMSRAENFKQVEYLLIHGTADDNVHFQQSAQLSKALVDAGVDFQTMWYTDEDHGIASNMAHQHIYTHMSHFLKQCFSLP

CC(C)=CCn1c(N2CCC3CNCC32)nc2ccc(NC(=O)c3ccccc3)cc21 (stereo not shown) [Example 1]
% inhibition at 30 μm: 25%
